In patent EP3221422B1, “COPPER(I) COMPLEXES FOR OPTOELECTRONIC APPLICATIONS” (cynora GmbH, priority 2014, dated 2016):

Experiment: Solubility tests of copper(I) complexes in organic solvents
Type: physicochemical
Conditions: for Löslichkeit (qualitative): effect of the unsymmetrical ligand m-Tolylphosphin s
Description: Bei Koordination an ein Kupferatom könnten die m-Tolyl-Gruppen jeweils auf zwei verschiedene Weisen gedreht vorliegen (Figur 5). Vermutlich wird auf dieses Weise die Packung im Festkörper gestört, wodurch eine höhere Löslichkeit erzielt wird. In der Wärme (60 °C) wurde beispielsweise für Komplex 1-I-s eine Löslichkeit von rund 40 mg mL^-1 erreicht; weitere Löslichkeitsdaten sind in Tabelle 1 aufgeführt.
Komplex 1-I-s zeigt neben einer guten Löslichkeit auch eine besonders hohe Quanteneffizienz, sowohl in Pulver (93%) als auch im Dünnfilm (90%). Interessanterweise kommt es bei der Filmpräparation dieser Verbindung zu nahezu keiner Verschiebung der Emissionswellenlänge (Film: 550 nm, Pulver: 547 nm). Offenbar liegt bereits im Festkörper eine Verzerrung ähnlich der Situation im Film vor. Die Struktur wird, wie oben erläutert wurde, durch die als sterisch anspruchsvolle Gruppen wirkenden Tolylreste stabilisiert. Tabelle 1: Löslichkeitstests für Komplex 1-I-s.

## (Tris-(3-methyl-phenyl)phosphin)(4-tBu-pyridin)Cu2I2 [E-I-s]
  Löslichkeit (qualitative): erhöhte Löslichkeit

## (MePyrPHOS)(Tris-m-tolyl-phosphin)2Cu2I2 [Komplex 1-I-s]
1-Heptanol, Konzentration: 5 mg/mL
  Löslichkeit: Ja (Wärme)
1-Heptanol, Konzentration: 10 mg/mL
  Löslichkeit: Ja (Wärme)
1-Heptanol, Konzentration: 2,5 mg/mL
  Löslichkeit: Ja
1-Hexanol, Konzentration: 5 mg/mL
  Löslichkeit: Ja (Wärme)
1-Hexanol, Konzentration: 10 mg/mL
  Löslichkeit: Ja (Wärme)
1-Hexanol, Konzentration: 2,5 mg/mL
  Löslichkeit: Ja
Aceton, Konzentration: 5 mg/mL
  Löslichkeit: Ja
Aceton, Konzentration: 10 mg/mL
  Löslichkeit: Ja
Aceton, Konzentration: 2,5 mg/mL
  Löslichkeit: Ja
Acetonitril, Konzentration: 5 mg/mL
  Löslichkeit: Ja (Wärme)
Acetonitril, Konzentration: 10 mg/mL
  Löslichkeit: Ja (Wärme)
Acetonitril, Konzentration: 2,5 mg/mL
  Löslichkeit: Ja
Cyclooctan, Konzentration: 5 mg/mL
  Löslichkeit: Ja (Wärme)
Cyclooctan, Konzentration: 10 mg/mL
  Löslichkeit: Nein
Cyclooctan, Konzentration: 2,5 mg/mL
  Löslichkeit: Ja
Essigester, Konzentration: 5 mg/mL
  Löslichkeit: Ja
Essigester, Konzentration: 10 mg/mL
  Löslichkeit: Ja
Essigester, Konzentration: 2,5 mg/mL
  Löslichkeit: Ja
In der Wärme (60 °C), solvent not stated
  Löslichkeit: ~40 mg/mL
Mesitylen
  Löslichkeit (max.): ≤ 20 mg/mL
Mesitylen, Konzentration: 5 mg/mL
  Löslichkeit: Ja
Mesitylen, Konzentration: 10 mg/mL
  Löslichkeit: Ja
Mesitylen, Konzentration: 2,5 mg/mL
  Löslichkeit: Ja
O-Xylol
  Löslichkeit (max.): ≤ 20 mg/mL
O-Xylol, Konzentration: 5 mg/mL
  Löslichkeit: Ja
O-Xylol, Konzentration: 10 mg/mL
  Löslichkeit: Ja
O-Xylol, Konzentration: 2,5 mg/mL
  Löslichkeit: Ja
Tetralin
  Löslichkeit (max.): ≤ 20 mg/mL
Tetralin, Konzentration: 5 mg/mL
  Löslichkeit: Ja
Tetralin, Konzentration: 10 mg/mL
  Löslichkeit: Ja
Tetralin, Konzentration: 2,5 mg/mL
  Löslichkeit: Ja
  Löslichkeit (qualitative): erhöhte Löslichkeit

## (Tris-(3-methyl-phenyl)phosphin)(4-tBu-pyridin)Cu2Br2 [E-Br-s]
  Löslichkeit (qualitative): erhöhte Löslichkeit

## (PyrPHOS)(tris-m-tolyl-phosphin)2Cu2I2 [Komplex 11-I-s]
  Löslichkeit (qualitative): erhöhte Löslichkeit
